For one molecule, IC50 results are on record in patent publication US5955572A, “Structural mimics of RGD-binding sites” (La Jolla Cancer Research Foundation, priority 1998, dated 1999).

The assay concerns the target T1, β3 (109-133) peptide (Homo sapiens, UniProt P05106).
T1 construct: made in house; host or cells: chemical synthesis
T1 sequence (P05106 135-159 limits assumed): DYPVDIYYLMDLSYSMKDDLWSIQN
Put plainly: RGD-phage binding to peptides from the β3 integrin subunit. Particulars: titration experiments (not shown); read-out: concentration giving 50% inhibition of RGD-binding to β3 (109-133).

Where a SMILES comes first, the peptide text is derived from it. Bridges are numbered along the chain shown (N, C = ends).

On to `CC(C)C[C@@H]1NC(=O)[C@H](Cc2c[nH]c3ccccc23)NC(=O)CNC(=O)[C@H](CC(=O)O)NC(=O)[C@H](CC(=O)O)NC(=O)[C@H](Cc2c[nH]c3ccccc23)NC(=O)[C@@H](N)CSSC[C@@H](C(=O)O)NC1=O` (H-CWDDGWLC-OH; disulfide 1-8), for which the IC50 is around 1000 nM.
